# Biological target: T1, human PTH1 receptor (Homo sapiens, UniProt Q03431)
# T1 sequence (Q03431 27-593): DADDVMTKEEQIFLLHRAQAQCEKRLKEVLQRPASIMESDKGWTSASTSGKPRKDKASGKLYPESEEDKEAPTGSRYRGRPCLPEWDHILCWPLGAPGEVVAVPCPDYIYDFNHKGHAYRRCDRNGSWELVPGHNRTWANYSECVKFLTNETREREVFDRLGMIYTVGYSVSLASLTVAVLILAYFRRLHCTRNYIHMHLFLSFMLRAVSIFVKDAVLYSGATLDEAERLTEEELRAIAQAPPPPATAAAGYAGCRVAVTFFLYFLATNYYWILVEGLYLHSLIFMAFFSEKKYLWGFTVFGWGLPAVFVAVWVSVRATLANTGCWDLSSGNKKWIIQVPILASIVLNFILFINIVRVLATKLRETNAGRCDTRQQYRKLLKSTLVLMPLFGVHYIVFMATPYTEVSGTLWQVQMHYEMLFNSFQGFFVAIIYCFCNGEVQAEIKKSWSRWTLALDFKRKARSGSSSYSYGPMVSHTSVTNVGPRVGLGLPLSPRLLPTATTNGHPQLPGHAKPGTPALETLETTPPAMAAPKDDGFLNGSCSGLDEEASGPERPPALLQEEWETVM
# Assay: In vitro cAMP signal activity in HKRK-B7 cells (LLC-PK1 cells overexpressing the human PTH1 receptor)
# Type: cell-based
# Conditions: HKRK-B7 cells; compound at 1×10^−3 M; cAMP produced as percentage of that produced by hPTH(1-34) at 100 nM
row,cAMP production activity (%),SMILES
1,97,"Cc1cc(C(=O)N2C[C@@H](O)[C@H](N(C)C)C2)cc(C)c1/C=C/S(=O)(=O)N1CCC2(CC1)N=C(c1cccc(C(F)(F)F)c1)NC2=O [Compound 387, 8-{(E)-2-[4-((3R,4R)-3-dimethylamino-4-hydroxy-pyrrolidine-1-carbonyl)-2,6-dimethyl-phenyl]-ethenesulfonyl}-2-(3-trifluoromethyl-phenyl)-1,3,8-triaza-spiro[4.5]dec-1-en-4-one]"
2,85,"CC(=O)NC[C@H]1CCC(=O)N1c1cc(C)c(/C=C/S(=O)(=O)N2CCC3(CC2)N=C(c2cccc(OC(F)(F)F)c2)NC3=O)c(C)c1 [Compound 610, N—[(R)-1-(3,5-dimethyl-4-{(E)-2-[4-oxo-2-(3-trifluoromethoxy-phenyl)-1,3,8-triaza-spiro[4.5]dec-1-ene-8-sulfonyl]-vinyl}-phenyl)-5-oxo-pyrrolidin-2-ylmethyl]-acetamide]"
3,25,"Cc1cc(N2OCCC2=O)ccc1/C=C/S(=O)(=O)N1CCC2(CC1)N=C(C1CCC(C)CC1)NC2=O (stereo not shown) [Compound 580, 2-(4-methyl-cyclohexyl)-8-{(E)-2-[2-methyl-4-(3-oxo-isoxazolidin-2-yl)-phenyl]-ethenesulfonyl}-1,3,8-triaza-spiro[4.5]dec-1-en-4-one]"
4,14,"Cc1cc(CN2C(=O)CCC2=O)cc(C)c1CCS(=O)(=O)N1CCC2(CC1)N=C(C1CCC(C)CC1)NC2=O (stereo not shown) [Compound 782, 1-(3,5-dimethyl-4-{2-[2-(4-methyl-cyclohexyl)-4-oxo-1,3,8-triaza-spiro[4.5]dec-1-ene-8-sulfonyl]-ethyl}-benzyl)-pyrrolidine-2,5-dione]"
5,88,"Cc1cc(C(=O)N2CCC(C)(O)CC2)cc(C)c1/C=C/S(=O)(=O)N1CCC2(CC1)N=C(c1cccc(C(C)(F)F)c1)NC2=O [Compound 1206, 2-[3-(1,1-difluoro-ethyl)-phenyl]-8-{(E)-2-[4-(4-hydroxy-4-methyl-piperidine-1-carbonyl)-2,6-dimethyl-phenyl]-ethenesulfonyl}-1,3,8-triaza-spiro[4.5]dec-1-en-4-one]"
6,78,"COCCN(C(N)=O)c1cc(C)c(CCS(=O)(=O)N2CCC3(CC2)N=C(C2CCC(CCC(F)(F)F)CC2)NC3=O)c(C)c1 (stereo not shown) [Compound 827, 1-[3,5-dimethyl-4-(2-{4-oxo-2-[4-(3,3,3-trifluoro-propyl)-cyclohexyl]-1,3,8-triaza-spiro[4.5]dec-1-ene-8-sulfonyl}-ethyl)-phenyl]-1-(2-methoxy-ethyl)-urea]"
7,81,"Cc1cc(NCCN(C)C)ccc1CCS(=O)(=O)N1CCC2(CC1)N=C(C1CCCCC1)NC2=O [Compound 842, 2-cyclohexyl-8-{2-[4-(2-dimethylamino-ethylamino)-2-methyl-phenyl]-ethanesulfonyl}-1,3,8-triaza-spiro[4.5]dec-1-en-4-one]"
8,21,"CN(CCO)S(=O)(=O)c1ccc(/C=C/S(=O)(=O)N2CCC3(CC2)N=C(C2CCCCC2)NC3=O)c(C(F)(F)F)c1 [Compound 495, 4-[(E)-2-(2-cyclohexyl-4-oxo-1,3,8-triaza-spiro[4.5]dec-1-ene-8-sulfonyl)-vinyl]-N-(2-hydroxy-ethyl)-N-methyl-3-trifluoromethyl-benzenesulfonamide]"
9,57,"Cc1cc(N2CCC(=O)NC2=O)cc(C)c1CCS(=O)(=O)N1CCC2(CC1)N=C(C1CCC(C)CC1)NC2=O (stereo not shown) [Compound 786, 1-(3,5-dimethyl-4-{2-[2-(4-methyl-cyclohexyl)-4-oxo-1,3,8-triaza-spiro[4.5]dec-1-ene-8-sulfonyl]-ethyl}-phenyl)-dihydro-pyrimidine-2,4-dione]"
10,75,"Cc1cc(C(=O)N2CCC(C)(O)CC2)cc(C)c1/C=C/S(=O)(=O)N1CCC2(CC1)N=C(c1cccc(CC#N)c1)NC2=O [Compound 1187, [3-(8-{(E)-2-[4-(4-hydroxy-4-methyl-piperidine-1-carbonyl)-2,6-dimethyl-phenyl]-ethenesulfonyl}-4-oxo-1,3,8-triaza-spiro[4.5]dec-1-en-2-yl)-phenyl]-acetonitrile]"
11,85,"Cc1cc(C(=O)N2CC[C@H](O)C2)cc(C)c1/C=C/S(=O)(=O)N1CCC2(CC1)N=C(c1cccc(OC(F)(F)F)c1)NC2=O [Compound 402, 8-{(E)-2-[4-((S)-3-hydroxy-pyrrolidine-1-carbonyl)-2,6-dimethyl-phenyl]-ethenesulfonyl}-2-(3-trifluoromethoxy-phenyl)-1,3,8-triaza-spiro[4.5]dec-1-en-4-one]"

# The next lines start with the compound.
row,SMILES,cAMP production activity (%)
1,"Cn1ccc2cccc(CCS(=O)(=O)N3CCC4(CC3)N=C(c3cccc(OC(F)(F)F)c3)NC4=O)c21 [Compound 308, 8-[2-(1-methyl-1H-indol-7-yl)-ethanesulfonyl]-2-(3-trifluoromethoxy-phenyl)-1,3,8-triaza-spiro[4.5]dec-1-en-4-one]",72
2,"O=C1NC(Cc2ccccc2)=NC12CCN(S(=O)(=O)c1cccc(Cl)c1)CC2 [Compound 7, 2-benzyl-8-(3-chloro-benzenesulfonyl)-1,3,8-triaza-spiro[4.5]dec-1-en-4-one]",13
3,"COCCCCCCCC1=NC2(CCN(S(=O)(=O)CCc3c(C)cc(N(C)C(N)=O)cc3C)CC2)C(=O)N1 [Compound 1351, 1-(4-{2-[2-(7-methoxy-heptyl)-4-oxo-1,3,8-triaza-spiro[4.5]dec-1-ene-8-sulfonyl]-ethyl}-3,5-dimethyl-phenyl)-1-methyl-urea]",100
4,"[2H]C([2H])([2H])C([2H])(Oc1ccc(C2=NC3(CCN(S(=O)(=O)/C=C/c4c(C)cc(C(=O)N5CCC(O)(CF)CC5)cc4C)CC3)C(=O)N2)cc1C(F)(F)F)C([2H])([2H])[2H] [Compound 1262, 8-{(E)-2-[4-(4-fluoromethyl-4-hydroxy-piperidine-1-carbonyl)-2,6-dimethyl-phenyl]-ethenesulfonyl}-2-(4-[1,2,2,2,2,2,2-^2H7]isopropoxy-3-trifluoromethyl-phenyl)-1,3,8-triaza-spiro[4.5]dec-1-en-4-one]",90
5,"Cc1cc(C(=O)N(C)C)ccc1CCS(=O)(=O)N1CCC2(CC1)N=C(Cc1ccccc1)NC2=O [Compound 83, 4-[2-(2-benzyl-4-oxo-1,3,8-triaza-spiro[4.5]dec-1-ene-8-sulfonyl)-ethyl]-3,N,N-trimethyl-benzamide]",41
6,Cc1cc2ccc1CCS(=O)(=O)N1CCC3(CC1)N=C(NC3=O)c1cc(cc(C(F)(F)F)c1)OCCOCCNC(=O)CN(C)C2=O [Compound 1440],10
7,"O=C1NC(c2cccc(C(F)(F)F)c2)=NC12CCN(S(=O)(=O)/C=C/c1cccc3c1ccn3C[C@H](O)CO)CC2 [Compound 524, 8-{(E)-2-[1-((S)-2,3-dihydroxy-propyl)-1H-indol-4-yl]-ethenesulfonyl}-2-(3-trifluoromethyl-phenyl)-1,3,8-triaza-spiro[4.5]dec-1-en-4-one]",90
8,"Cc1cc(OC[C@H](O)[C@@H](O)CO)cc(C)c1/C=C/S(=O)(=O)N1CCC2(CC1)N=C(C1CCC(CCC(F)(F)F)CC1)NC2=O (stereo partly drawn) [Compound 705, 8-{(E)-2-[2,6-dimethyl-4-((2S,3S)-2,3,4-trihydroxy-butoxy)-phenyl]-ethenesulfonyl}-2-[4-(3,3,3-trifluoro-propyl)-cyclohexyl]-1,3,8-triaza-spiro[4.5]dec-1-en-4-one]",76
9,Cc1cc2ccc1CCS(=O)(=O)N1CCC3(CC1)N=C(NC3=O)c1cc(cc(C(F)(F)F)c1)OCCCCCCCCCN(C)C2=O [Compound 1415],49
10,"CN(C)C(=O)c1ccc(/C=C/S(=O)(=O)N2CCC3(CC2)N=C(c2cccc(OC(F)(F)F)c2)NC3=O)c(F)c1 [Compound 233, 3-fluoro-N,N-dimethyl-4-{(E)-2-[4-oxo-2-(3-trifluoromethoxy-phenyl)-1,3,8-triaza-spiro[4.5]dec-1-ene-8-sulfonyl]-vinyl}-benzamide]",13
11,"Cc1cc(N(C)C(=O)CN)cc(C)c1/C=C/S(=O)(=O)N1CCC2(CC1)N=C(c1cccc(OC(F)(F)F)c1)NC2=O [Compound 1011, 2-Amino-N-(3,5-dimethyl-4-{(E)-2-[4-oxo-2-(3-trifluoromethoxy-phenyl)-1,3,8-triaza-spiro[4.5]dec-1-ene-8-sulfonyl]-vinyl}-phenyl)-N-methyl-acetamide]",17
12,"Cc1cc(N2C(=O)N(C)C(C)(C)C2=O)cc(C)c1/C=C/S(=O)(=O)N1CCC2(CC1)N=C(c1cccc(OC(F)(F)F)c1)NC2=O [Compound 614, 3-(3,5-dimethyl-4-{(E)-2-[4-oxo-2-(3-trifluoromethoxy-phenyl)-1,3,8-triaza-spiro[4.5]dec-1-ene-8-sulfonyl]-vinyl}-phenyl)-1,5,5-trimethyl-imidazolidine-2,4-dione]",25
13,Cc1cc2ccc1CCS(=O)(=O)N1CCC3(CC1)N=C(NC3=O)c1cc(cc(C(F)(F)F)c1)OCCC/C=C\NC(=O)CN(C)C2=O [Compound 1423],17
14,"Cc1cc(N(C)C(N)=O)cc(C)c1/C=C/S(=O)(=O)N1CCC2(CC1)N=C(c1ccc(CCCC(F)(F)F)cc1)NC2=O [Compound 1088, 1-[3,5-Dimethyl-4-((E)-2-{4-oxo-2-[4-(4,4,4-trifluoro-butyl)-phenyl]-1,3,8-triaza-spiro[4.5]dec-1-ene-8-sulfonyl}-vinyl)-phenyl]-1-methyl-urea]",95

# — US9169254B2, “Spiroimidazolone derivative” (Chugai Seiyaku Kabushiki Kaisha, priority 2009, dated 2015)
